How the values were obtained:
[1] = Extraction of acrylic acid and 3-hydroxypropionic acid from aqueous stock solutions using various extractants; conditions: 22° C.; for Partition Coefficient, D 3HP / Partition Coefficient, D AA: extractant phase/aqueous phase
Excerpt: In this Example, there were utilized five (5) aqueous stock solutions. The aqueous stock solutions comprise 3-hydroxypropionic acid and acrylic acid. In each of the five aqueous stock solutions, the concentration of 3-hydroxypropionic acid is approximately two times higher than the concentration of the acrylic acid.
In carrying out the following extractions of 3-hydroxypropionic acid and acrylic acid from aqueous stock solutions comprising 3-hydroxypropionic acid and acrylic acid, the following organic extractants were used: • a. Decanol • b. Methyl isobutyl ketone (MiBK) • c. Isopropyl ether • d. Methyl acrylate • e. Methyl propionate • f. Methylene chloride (CH2Cl2) • g. Toluene • h. Isopropyl acetate • i. Ethyl acetate • j. 50/50 wt % Tributyl phosphate (TBP) and ISOPAR-K isoparaffinic hydrocarbon available from Exxon Mobil Corporation The extraction procedure utilized in the Examples herein for separating and recovering 3-hydroxypropionic acid and acrylic acid from aqueous solutions comprising 3-hydroxypropionic acid and acrylic acid is set forth below.
1. To a 15 ml centrifuge tube 5 ml of an acid stock solution and an extractant were added. Masses of the empty centrifuge tube, the aqueous solution and extractant were recorded.
2. The tube was placed on a platform shaker and the contents in the tube were mixed at 230 rpm for 30 minutes at 22° C. (rpm designates revolutions per minute).
3. At the end of mixing, the tube was centrifuged at 4500 rpm for 5 minutes.
4. The volumes of the aqueous and extractant phases in the tube were recorded.
5. The aqueous phase was separated from the extractant phase and the masses of both phases were recorded.
6. The acrylic acid and the 3-hydroxypropionic acid in the aqueous solution were analyzed by HPLC.
7. The concentrations of acrylic acid and 3-hydroxypropionic acid in the organic extractant were calculated by subtracting the concentrations of acrylic acid and 3-hydroxypropionic acid in the aqueous phase from the initial concentration in the stock solution.

[2] = Distillation of organic extractant from acrylic acid solution in the presence of water; format: physicochemical; conditions: distillation at about 100 mm Hg, room temperature; 18.5 g isopropyl ether, 3 g acrylic acid, 9 g water
Experimental: In this Example, there is shown the process for separating and recovering acrylic acid from a solution comprising acrylic acid and an organic extractant that has a boiling point lower than 100° C. The process involves distillation of the solution, in the presence of water, to distill the organic extractant having a boiling point lower than 100° C., resulting in an aqueous acrylic acid solution.
More particularly, 18.5 grams of isopropyl ether, 3 grams of acrylic acid, and 9 grams of distilled water were introduced into a 100 ml round bottom flask. The organic extractant, isopropyl ether, that has a boiling point of 68° C. at ambient temperature, was then distilled from the solution. The distillation of the isopropyl ether organic extractant, was achieved by applying to the flask, containing the solution of acrylic acid, organic extractant and water, a reduced pressure of about 100 mm Hg, at room temperature (about 20-24° C.). The distillation was completed in about 5 minutes. The resulting isopropyl ether distillate that was collected, and the remaining aqueous solution in the flask, were weighed, and the concentration of acrylic acid in both the isopropyl ether distillate and in the aqueous solution, were determined by means of titration. The amount of acrylic acid that remained in the flask as the aqueous solution was 91%. […]

[3] = Aqueous Stock Solution No. 1 (0.67 wt % AA, 1.34 wt % 3HP)
[4] = Aqueous Stock Solution No. 5 (12.51 wt % AA, 25.05 wt % 3HP)
[5] = Aqueous Stock Solution No. 2 (3.33 wt % AA, 6.67 wt % 3HP)
[6] = Aqueous Stock Solution No. 3 (6.67 wt % AA, 13.34 wt % 3HP)
[7] = Aqueous Stock Solution No. 4 (9.99 wt % AA, 19.98 wt % 3HP)

Row | Structure (SMILES) | Acid in Aqueous Phase, wt % 3HP [1, 3] | Acid in Aqueous Phase, wt % AA [1, 3] | Acid in Extractant Phase, wt % 3HP [1, 3] | Acid in Extractant Phase, wt % AA [1, 3] | Separation Factor, S AA/3HP [1, 3] | Partition Coefficient, D 3HP [1, 3] | Partition Coefficient, D AA [1, 3] | Acid in Aqueous Phase, wt % 3HP [1, 4] | Acid in Aqueous Phase, wt % AA [1, 4] | Acid in Extractant Phase, wt % 3HP [1, 4] | Acid in Extractant Phase, wt % AA [1, 4] | Separation Factor, S AA/3HP [1, 4] | Partition Coefficient, D 3HP [1, 4] | Partition Coefficient, D AA [1, 4] | further results
1 | CCC(=O)OC [Methyl Propionate, Methyl propionate] | 1.22 wt % | 0.24 wt % | 0.06 wt % | 0.51 wt % | 44.43 | 0.05 | 2.13 | 22.63 wt % | 4.54 wt % | 5.54 wt % | 8.55 wt % | 7.69 | 0.25 | 1.88 | 
2 | CC(=O)OC(C)C [Isopropyl Acetate, Isopropyl acetate] | 1.28 wt % | 0.24 wt % | 0.06 wt % | 0.52 wt % | 43.36 | 0.05 | 2.19 | 25.35 wt % | 4.42 wt % | 3.82 wt % | 8.95 wt % | 13.43 | 0.15 | 2.02 | 
3 | CCCCCCCCCCO [Decanol] | 1.37 wt % | 0.31 wt % | 0.03 wt % | 0.47 wt % | 77.18 |  |  | 25.90 wt % | 5.94 wt % | 3.21 wt % | 8.20 wt % | 11.13 |  |  | 
4 | ClCCl [CH2Cl2, Methylene chloride] | 1.39 wt % | 0.61 wt % |  | 0.04 wt % |  |  | 0.06 | 25.05 wt % | 7.84 wt % | 0.53 wt % | 3.72 wt % | 22.45 | 0.02 | 0.48 | 
5 | CCOC(C)=O [Ethyl Acetate, Ethyl acetate, reference compound] | 1.13 wt % | 0.20 wt % | 0.20 wt % | 0.59 wt % | 16.55 |  |  | 21.16 wt % | 4.22 wt % | 8.68 wt % | 8.07 wt % | 4.66 |  |  | Acid in Aqueous Phase, wt % 3HP [1, 5]: 5.77 wt %; Acid in Aqueous Phase, wt % AA [1, 5]: 0.97 wt %; Acid in Extractant Phase, wt % 3HP [1, 5]: 1.21 wt %; Acid in Extractant Phase, wt % AA [1, 5]: 2.87 wt %; Separation Factor, S AA/3HP [1, 5]: 14.18; Acid in Aqueous Phase, wt % 3HP [1, 6]: 11.38 wt %; Acid in Aqueous Phase, wt % AA [1, 6]: 2.02 wt %; Acid in Extractant Phase, wt % 3HP [1, 6]: 3.09 wt %; Acid in Extractant Phase, wt % AA [1, 6]: 5.36 wt %; Separation Factor, S AA/3HP [1, 6]: 9.79; Acid in Aqueous Phase, wt % 3HP [1, 7]: 17.08 wt %; Acid in Aqueous Phase, wt % AA [1, 7]: 3.18 wt %; Acid in Extractant Phase, wt % 3HP [1, 7]: 5.17 wt %; Acid in Extractant Phase, wt % AA [1, 7]: 7.53 wt %; Separation Factor, S AA/3HP [1, 7]: 7.81
6 | CC(C)OC(C)C [Isopropyl Ether, Isopropyl ether] | 1.30 wt % | 0.36 wt % | 0.04 wt % | 0.44 wt % | 40.59 |  |  | 25.72 wt % | 5.92 wt % | 1.85 wt % | 9.79 wt % | 22.91 |  |  | amount of acrylic acid that remained in the flask as the aqueous solution [2]: 91%; amount of acrylic acid that was co-distilled with the extractant [2]: about 7%
7 | Cc1ccccc1 [Toluene] | 1.42 wt % | 0.69 wt % |  |  |  |  |  | 26.72 wt % | 10.57 wt % |  | 2.47 wt % |  |  |  | 
8 | CC(=O)CC(C)C [MiBK, Methyl isobutyl ketone] | 1.32 wt % | 0.23 wt % | 0.03 wt % | 0.59 wt % | 108.82 |  |  | 24.17 wt % | 4.11 wt % | 5.46 wt % | 9.92 wt % | 10.69 |  |  | 
9 | C=CC(=O)OC [Methyl Acrylate, Methyl acrylate] | 1.24 wt % | 0.25 wt % | 0.07 wt % | 0.45 wt % | 31.01 | 0.06 | 1.82 | 21.57 wt % | 4.51 wt % | 6.70 wt % | 8.13 wt % | 5.80 | 0.31 | 1.80 | 
